In PubChem BioAssay AID296 (DTP/NCI, 2004):
Several values for one entry are separate records, joined by “and”; a condition that tells them apart may be missing. Identical values can stand only once. Inconclusive results are not listed. Where a SMILES comes first, the peptide text is derived from it. Bridges are numbered along the chain shown (N, C = ends). Roman numbers before positions name the chains, in order. [ ]: non-standard residue; d: D form. The star is where a group is joined. Quinoxaline2carbonyl = O=C(c1cnc2ccccc2n1)*; NMeV = CN[CH](C(=O)O)C(C)C; NMeC = CN[CH](CS)C(=O)O

Test system: MX-1 breast xenograft, nude mice, tumor weight T/C
Experiment: NCI In Vivo Anticancer Drug Screen. Data for tumor model Human Mammary Carcinoma MX-1 Xenograft (intrarenal inoculation) in NU/NU Swiss (nude) mice
Conditions: endpoint: mean tumor weight change, higher = larger tumour
Summary of the method: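 Compound dosed to mice with transplantable tumor; vehicle group as control. Endpoint survival or tumour size, reported as T/C.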

[1] = dose: 300.0 mg/kg/injection, schedule: Q04DX003 (sc), vehicle: Klucel (hydroxypropylcellulose) (HPC)
[2] = dose: 600.0 mg/kg/injection, schedule: Q04DX003 (sc), vehicle: Klucel (hydroxypropylcellulose) (HPC)
[3] = dose: 1200.0 mg/kg/injection, schedule: Q04DX003 (sc), vehicle: Klucel (hydroxypropylcellulose) (HPC)
[4] = dose: 2400.0 mg/kg/injection, schedule: Q04DX003 (sc), vehicle: Klucel (hydroxypropylcellulose) (HPC)
[5] = dose: 300.0 mg/kg/injection, schedule: Q04DX003 (sc), vehicle: saline with Tween-80

For O=S(=O)(O)O.[NH-]C1CCCCC1[NH-].[Pt+2] (stereo unspecified), the T/C (dose: 0.63 mg/kg/injection, schedule: Q01DX010 (sc), vehicle: dextrose) was 95 % of control and 111 % of control and 115 % of control and the T/C (dose: 2.5 mg/kg/injection, schedule: Q01DX010 (sc), vehicle: dextrose) was 10 % of control and 12 % of control.
For Cc1cc(NCCN(C(C)C)C(C)C)nc(/N=C(\N)Nc2ccc(Cl)c(C(F)(F)F)c2)n1, the T/C (dose: 80.0 mg/kg/injection, schedule: Q04DX003 (sc), vehicle: Klucel (hydroxypropylcellulose) (HPC)) was 64 % of control, the T/C (dose: 160.0 mg/kg/injection, schedule: Q04DX003 (sc), vehicle: Klucel (hydroxypropylcellulose) (HPC)) was 62 % of control and the T/C (dose: 320.0 mg/kg/injection, schedule: Q04DX003 (sc), vehicle: Klucel (hydroxypropylcellulose) (HPC)) was 81 % of control.
Cc1c(-c2ccc(C3CCCCC3)cc2)nc2ccc(F)cc2c1C(=O)O was tested, and the T/C [1] was 86 % of control, the T/C [2] was 75 % of control and the T/C [3] was 80 % of control. The T/C [4] was 96 % of control.
For Nc1ccc(C(OC(=O)c2cc3ccccc3c(Cc3c(O)c(C(=O)OC(c4ccc(N)cc4)(c4ccc(N)cc4)c4ccc(N)cc4)cc4ccccc34)c2O)(c2ccc(N)cc2)c2ccc(N)cc2)cc1, the T/C (dose: 72.0 mg/kg/injection, schedule: Q04DX003 (sc), vehicle: saline with Tween-80) was 97 % of control, the T/C (dose: 144.0 mg/kg/injection, schedule: Q04DX003 (sc), vehicle: saline with Tween-80) was 104 % of control and the T/C (dose: 288.0 mg/kg/injection, schedule: Q04DX003 (sc), vehicle: saline with Tween-80) was 87 % of control.
With CCC(=O)O[C@H]1CC[C@H]2[C@@H]3CCC4=CC(=O)CC[C@]4(C)[C@H]3CC[C@]12C the T/C [1] was 76 % of control, the T/C [2] was 88 % of control and the T/C [3] was 74 % of control. The T/C [4] was 115 % of control.
With CCC1CN2C(=N1)c1ccccc1-c1cc(Cl)ccc12 (stereo unspecified) the T/C (dose: 12.5 mg/kg/injection, schedule: Q01DX010 (sc), vehicle: saline with Tween-80) was 108 % of control, the T/C (dose: 25.0 mg/kg/injection, schedule: Q01DX010 (sc), vehicle: saline with Tween-80) was 118 % of control and the T/C (dose: 50.0 mg/kg/injection, schedule: Q01DX010 (sc), vehicle: saline with Tween-80) was 108 % of control.
For O=Cc1ccccc1, the T/C (dose: 200.0 mg/kg/injection, schedule: Q04DX003 (sc), vehicle: Klucel (hydroxypropylcellulose) (HPC)) was 96 % of control, the T/C (dose: 400.0 mg/kg/injection, schedule: Q04DX003 (sc), vehicle: Klucel (hydroxypropylcellulose) (HPC)) was 92 % of control and the T/C (dose: 800.0 mg/kg/injection, schedule: Q04DX003 (sc), vehicle: Klucel (hydroxypropylcellulose) (HPC)) was 85 % of control.
In the case of O=C(O)CC(=O)O.[NH-]C1CCCCC1[NH-].[Pt+2] (stereo unspecified), the T/C (dose: 20.0 mg/kg/injection, schedule: Q01DX010 (sc), vehicle: dextrose) is reported as 1 % of control and -16 % of control and the T/C (dose: 40.0 mg/kg/injection, schedule: Q01DX010 (sc), vehicle: dextrose) is reported as -81 % of control and -78 % of control.
For CCCCCC#CC1OC12CCCCC2 (stereo unspecified), the T/C [5] was 83 % of control, the T/C (dose: 600.0 mg/kg/injection, schedule: Q04DX003 (sc), vehicle: saline with Tween-80) was 101 % of control and the T/C (dose: 1200.0 mg/kg/injection, schedule: Q04DX003 (sc), vehicle: saline with Tween-80) was 83 % of control. For the same compound, the T/C (dose: 2400.0 mg/kg/injection, schedule: Q04DX003 (sc), vehicle: saline with Tween-80) was 78 % of control.
With COc1ccc(S(=O)(=O)N=N/C=C2\C=CC=CN2O)cc1OC the T/C (dose: 37.5 mg/kg/injection, schedule: Q04DX003 (sc), vehicle: saline with Tween-80) was 81 % of control, the T/C (dose: 75.0 mg/kg/injection, schedule: Q04DX003 (sc), vehicle: saline with Tween-80) was 61 % of control and the T/C (dose: 150.0 mg/kg/injection, schedule: Q04DX003 (sc), vehicle: saline with Tween-80) was 47 % of control. For the same compound, the T/C [5] was 64 % of control.
In the case of CC1NC(=O)C(NC(=O)c2cnc3ccccc3n2)COC(=O)C(C(C)C)N(C)C(=O)C2CSSCC(C(=O)N(C)C(C(C)C)C(=O)OCC(NC(=O)c3cnc4ccccc4n3)C(=O)NC(C)C(=O)N2C)N(C)C1=O (stereo unspecified) (I: Quinoxaline2carbonyl-SA[NMeC][NMeV] / II: Quinoxaline2carbonyl-SA[NMeC][NMeV]; ester I:1-II:C, I:C-II:1; disulfide I:3-II:3; configuration not given here), the T/C (dose: 100.0 micrograms/kg/injection, schedule: Q04DX003 (sc), vehicle: Klucel (hydroxypropylcellulose) (HPC)) is reported as 63 % of control, the T/C (dose: 200.0 micrograms/kg/injection, schedule: Q04DX003 (sc), vehicle: Klucel (hydroxypropylcellulose) (HPC)) is reported as 62 % of control and the T/C (dose: 400.0 micrograms/kg/injection, schedule: Q04DX003 (sc), vehicle: Klucel (hydroxypropylcellulose) (HPC)) is reported as 73 % of control. The T/C (dose: 800.0 micrograms/kg/injection, schedule: Q04DX003 (sc), vehicle: Klucel (hydroxypropylcellulose) (HPC)) was 46 % of control.
In the case of Cc1c(N)nc(C(CC(N)=O)NCC(N)C(N)=O)nc1C(=O)NC(C(=O)NC(C)C(O)C(C)C(=O)NC(C(=O)NCCc1nc(-c2nc(C(=O)NCCCNC(C)c3ccccc3)cs2)cs1)C(C)O)C(OC1OC(CO)C(O)C(O)C1OC1OC(CO)C(O)C(OC(N)=O)C1O)c1cnc[nH]1 (stereo unspecified), the T/C (dose: 2.0 mg/kg/injection, schedule: Q01DX010 (sc), vehicle: saline) is reported as 114 % of control, the T/C (dose: 8.0 mg/kg/injection, schedule: Q01DX010 (sc), vehicle: saline) is reported as 92 % of control and the T/C (dose: 16.0 mg/kg/injection, schedule: Q01DX010 (sc), vehicle: saline) is reported as 89 % of control.
With O=C(O)CC(=O)O.[NH-]CC[NH-].[Pt+2] the T/C (dose: 12.5 mg/kg/injection, schedule: Q01DX010 (sc), vehicle: dextrose) was -100 % of control and the T/C (dose: 100.0 mg/kg/injection, schedule: Q01DX010 (sc), vehicle: dextrose) was -100 % of control.
